Results published in US20070066616A1, “Inhibitors for extracellular signal-regulated kinase docking domains and uses therefor” (priority 2005, published 2007).
pIC50: −log10 of the molar value.

What was measured:
[1] = target: T1, ERK2 D316N (Mus musculus, UniProt P63085, D316N); assay: Fluorescence titration with ERK2 point mutant D316N (CD domain); format: binding; conditions: fluorescence quenching
T1 construct: (His)x6; made in house; host or cells: bacteria (as described for ERK2 in general; not repeated for the mutant)
T1 sequence (P63085 whole entry D316N, the tested form may be a part): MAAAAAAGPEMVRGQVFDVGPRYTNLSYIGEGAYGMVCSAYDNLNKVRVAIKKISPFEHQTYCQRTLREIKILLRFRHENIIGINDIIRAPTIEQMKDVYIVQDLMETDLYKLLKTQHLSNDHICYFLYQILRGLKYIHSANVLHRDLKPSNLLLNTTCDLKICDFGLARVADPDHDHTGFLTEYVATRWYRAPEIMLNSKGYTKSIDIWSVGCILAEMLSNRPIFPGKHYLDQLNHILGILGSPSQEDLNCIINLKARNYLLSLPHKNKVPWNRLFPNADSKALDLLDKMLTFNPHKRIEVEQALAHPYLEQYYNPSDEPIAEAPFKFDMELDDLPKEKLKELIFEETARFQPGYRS
Procedure: Direct binding interactions between ERK2 and the biologically active compounds is determined using fluorescence spectroscopy (47). Experiments measure the changes in the intrinsic ERK2 fluorescence due to the presence of aromatic amino acids, with the indole group of tryptophan being the major fluorophore with absorption and emission maxima around 280 and 340 nanometers (nm), respectively. Fluorescence spectra were recorded with a Luminescence Spectrometer LS50 (Perkin Elmer, Boston, Mass.). For all experiments, ERK2 protein was diluted into 20 mM Tris-HCl, pH 7.5. Titrations were performed by increasing the test compound concentration while maintaining the ERK2 protein concentration at 3 μM.
Unphosphorylated and phosphorylated ERK2 typically are incubated with […] of the biologically active compounds and the fluorescence intensity is measured. If necessary, higher inhibitor concentrations are used to saturate fluorescence quenching. The excitation wavelength was 295 nm and fluorescence was monitored from 300 to 500 nm. All reported fluorescence intensities are relative values and are not corrected for wavelength variations in detector response. […] Because the test compounds contain aromatic structures, the emission spectra of the active compounds in the absence of ERK2 is be determined. […]

[2] = tested on: SUM-159 estrogen-receptor negative breast cancer cell line; assay: Cell proliferation, SUM-159 cells; format: cell-based, human
Procedure: (§1) HeLa, A549, or SUM-159 cells were plated at a low density of ˜200-400 cells per well in the absence or presence of putative ERK docking domain inhibitors. Cell colonies were stained with crystal violet and counted after 6-10 days. In FIG. 7A cells were grown on 10 cm plates in the absence (−) or presence of 100 mM of compound 67, 36, 68, 81, or 76. Colony formation dose response in the presence of the indicated concentrations of compound 76 or 81 for Hela cells (100 mM) (FIG. 7B), A549 cells (50 mM) (FIG. 7C), or SUM-159 cells (50 mM) (FIG. 7D).
(§2) Trypsinized cells were plated on 12 or 24 well plates at low densities (200-400 cells per well) in the absence (DMSO only) or presence of test compounds. In additional experiments, cells were first allowed to adhere to the culture dishes for 16 hours prior to treatment with test compounds. The treated cells received a single dose of the test compounds at the beginning of the experiments. The control and treated cells were grown for 8-14 days to allow the formation of colonies. Cells then were fixed for 10 minutes in 4% paraformaldehyde and stained with 0.2% crystal violet (in 20% methanol) for 1-2 minutes. Following several washes with distilled water, the colonies (containing at least 40 cells) were counted. Each individual experiment was repeated on at least 3 separate occasions.

[3] = tested on: A549 lung carcinoma cells; assay: Colony formation assay, A549 cells; format: cell-based, human; conditions: colony formation dose response (FIG. 7C)
Procedure: as §1, §2

[4] = tested on: HT1080 fibrosarcoma cells; assay: Cell proliferation, HT1080 cells; format: cell-based, human; conditions: data not shown
Procedure: as §2

[5] = tested on: ERK-mediated phosphorylation of Rsk-1 on Thr573; assay: ERK-mediated Rsk-1 phosphorylation (Thr573), immunoblot and densitometry in EGF-stimulated HeLa cells; format: cell-based, human; conditions: immunoblot
Procedure: Prior to harvesting, cells were pre-incubated with the test compounds for 15-20 minutes and then stimulated with EGF or anisomycin to activate the ERK or p38 MAP kinase pathways, respectively. Control and treated cells were washed twice with cold phosphate buffered saline (PBS, pH 7.2; Invitrogen) and proteins were collected following cell lysis with 300 μl of cold tissue lysis buffer (20 mM Tris, pH 7.4, 137 mM NaCl, 2 mM EDTA, 1% Triton X-100, 0.1% SDS, 25 mM β-glycerophosphate, 2 mM sodium pyrophosphate, 10% glycerol, 1 mM sodium orthovanadate, 1 mM phenylmethylsulfonyl fluoride (PMSF), 1 mM benzamidine), allowed to incubate on ice for about 10 minutes and then centrifuged at 20,000 (X g) to clarify the lysates of insoluble material. The lysates then were diluted with an equal volume of 2X SDS-sample buffer and the proteins were separated on SDS-PAGE for immunoblot analysis. Immunoblot analysis was done as previously described (41-43).
All compounds were subjected to assays of ERK specific phosphorylation of Rsk-1 and/or Elk-1 as examined by immunoblot analysis using phosphorylation specific antibodies. In FIG. 5A HeLa cells were cultured in 24 well plates and pretreated for 20-30 minutes with […] of the selected test compounds. The cells were stimulated with epidermal growth factor (EGF, 50 ng/ml) for 5 minutes to activate the ERK pathway. Cell lysates were collected and immunoblotted for ERK-mediated phosphorylation of Rsk-1 on Thr573. As shown, EGF treatment alone caused a robust increase in Thr573 phosphorylation on Rsk-1 in the absence of test compounds. The presence of test compounds had inhibitory effects on ERK-mediated Rsk-1 phosphorylation.
Compounds 86-98 were first tested for inhibition of ERK mediated phosphorylation of the transcription factor Elk-1, which is an important regulator of cell proliferation. Cells were treated with EGF to activate the ERK pathway and phosphorylation of Elk-1 on the ERK site at S383 was detected by immunoblot analysis (FIG. 5C). […] The effects of the test compounds were also tested with Rsk-1, another ERK substrate involved in regulating cell proliferation.

[6] = tested on: HeLa, A549, or SUM-159 cells; assay: Colony formation assay, screen of test compounds (FIG. 7A); format: cell-based, human; set-up: dose or concentration left out as unconfirmed; conditions: FIG. 7A screen as printed
Procedure: as §1, with “(100 mM)” left out
as §2
The effects of the active compounds on cell proliferation and survival were tested using a colony formation assay.

SMILES: CCOc1ccc(C=C2SC(=O)N(CCN)C2=O)cc1 [Compound 76]
- reduction in binding affinity compared to wild type ERK2 [1]: approximately 5 fold
- inhibition of cell proliferation in SUM-159 (in words) [2]: inhibition of cell proliferation
- pIC50 [3]: ~4.60
- inhibition of cell proliferation in HT1080 (in words) [4]: inhibition of cell proliferation
- effect on ERK-mediated Rsk-1 phosphorylation (in words) [5]: highest inhibition
- effect on colony formation / cell proliferation (in words) [6]: completely inhibited
